This note sets out measurements from patent US20250270217A1, “IMIDAZ0[1,2-A]PYRIMIDINE-5(1 H)-ONES HAVING A COVALENT WARHEAD AT THE 3-POSITION AS WRN INHIBITORS” (Incyte Corporation, priority 2023, published 2025).

Where only a bound is given, the exact number is not on record here.

Experiment [1] concerns the target T1, WRN (Homo sapiens, UniProt Q14191).
T1 construct: A His-tagged construct of WRN (AA S2-S1235) was produced and used for the ATPase assay; His; made in house; host or cells: Sf9 insect cells (baculovirus)
The experiment can be described thus: WRN Helicase activity assay (fluorescence DNA unwinding). Format: biochemical. The settings on record: 1-hr pre-incubation with enzyme; 100 μM ATP, 25 nM forked dsDNA, 1 nM WRN; geometric mean of at least 2 replicates. As to the method: Compounds of the examples were tested for WRN helicase activity. DNA encoding the target protein, 6×HIS-TEV-WRN-517-945, was produced, cloned and transfected as detailed in Example D. To determine the inhibitory properties of the compounds, a 384 wells plate-based Helicase assay was set up to measure the extent of DNA unwinding (Helicase) activity of WRN. The WRN Helicase assay was designed to measure increase in fluorescence signal using a fluorescence based, donor-quencher paired forked dsDNA oligomer substrate (custom synthesis from Sigma-Aldrich) prepared by annealing equal amounts of oligo GPat-1 ([BHQ2][…]) and oligo GPat-2 ([…][TAM]). Continuous measurement of fluorescent signal was used to optimize the buffer conditions, concentration of enzyme (WRN), concentration of substrates (ATP & dsDNA), and the linearity of the Helicase reaction. All solutions were prepared in the following assay buffer: 50 mM Tris-HCl, pH-7.5, 2 mM MgCl2, 50 mM NaCl, 1 mM EGTA, 0.01% P-20, 0.05% BSA, and 2 mM DTT prepared with nuclease free water.
A serial dilution (1:3 scheme) of the compounds was prepared in neat DMSO and 100 nL of the compounds was dispensed in the Greiner black low volume (Greiner #784076) 384 wells assay plate. An 1-hr pre-incubation of the compounds with enzyme was included. A His-tagged construct of WRN (AA S2-S1235) was produced and used for the ATPase assay. Maximum inhibition control wells were set up with the addition of only assay buffer, and no inhibition control wells were set up with neat DMSO without test compounds. The reaction was initiated by addition of 5 μL substrate mix (200 μM ultrapure ATP, and 50 nM dsDNA prepared in assay buffer) and incubated at 25° C. for 35 min. A typical Helicase reaction consists of 25 nM forked dsDNA, 100 μM ATP, and 1 nM WRN prepared in assay buffer. The WRN Helicase reaction was quenched by the addition of 5 μL ‘STOP’ solution containing 100 mM EDTA (final EDTA concentration 33.33 mM) prepared in assay buffer. The plates were read on BMG PHERAstar FSX using 540/590 module to measure an increase of fluorescence. Data analysis was carried out using the Genedata software following % of control normalization. Fitting parameters include dose response IC50, Hill slope (n), maximum inhibition (S∞), and minimum inhibition (S0). The reported IC50 values for compounds in this invention are the geometric means of at least 2 independent replicates.

Experiment [2] has as its target T1, WRN. Put plainly: WRN ATPase activity assay (ADP-Glo). Format: biochemical. The settings on record: 1-hr pre-incubation with enzyme; 100 μM ATP, 25 nM forked dsDNA, 1 nM WRN; geometric mean of at least 2 replicates. As to the method:
Compounds of the Examples were tested for WRN ATPase activity. WRN ATPase activity catalyzes ATP hydrolysis to produce ADP and phosphate. DNA encoding the target protein, 6×HIS-TEV-WRN-517-945, was produced, cloned and transfected as detailed in Example D. The amount of ADP produced was measured using ADP-Glo™ Kinase Assay kit from Promega Corporation in a Greiner white regular volume 384 wells assay plate (Greiner #781075). Data was normalized to a standard curve generated using various ADP concentrations and the corresponding luminescent signal intensities at each concentration. The assay conditions were optimized for enzyme concentration (WRN), substrate concentrations (ATP & dsDNA), and the linearity of the ATPase reaction, in the following assay buffer: 50 mM Tris-HCl, pH-7.5, 2 mM MgCl2, 50 mM NaCl, 1 mM EGTA, 0.01% P-20, 0.05% BSA, and 2 mM DTT prepared with nuclease free water.
A serial dilution (1:3 scheme) of the compounds were prepared in neat DMSO, with 100 nL of the compounds dispensed in the 384 wells assay plate. An 1-hr pre-incubation of the compounds with enzyme was included. A His-tagged construct of WRN (AA S2-S1235) was produced and used for the ATPase assay. Maximum inhibition control wells were set up with the addition of only assay buffer, and no inhibition control wells were set up with neat DMSO without test compounds. The reaction was initiated by addition of 5 μL substrate mix (200 μM ultrapure ATP, and 50 nM dsDNA prepared in assay buffer) and incubated at 25° C. for 35 min. A forked dsDNA oligomer substrate was prepared by annealing equal amounts of oligo GPat-1 ([BHQ2][…]) and oligo GPat-2 ([…][TAM]) and was used as dsDNA substrate for WRN ATPase assay. A typical ATPase reaction consists of 25 nM forked dsDNA, 100 μM ATP, and 1 nM WRN prepared in assay buffer. The WRN ATPase reaction was stopped by the addition of 5 μL of ADP-Glo Reagent from ADP-Glo™ Kinase Assay kit and incubated for 40 min to deplete the unreacted ATP. Afterwards, 5 μL of Kinase Detection Reagent from the ADP-Glo™ Kinase Assay kit was added and incubated for 1 hr for the development of luminescence signal.
Luminesce signals were measured on BMG PHERAstar FSX using luminescence protocol. Data analysis was carried out using Genedata software following % of control normalization. Fitting parameters include dose response IC50, Hill slope (n), maximum inhibition (S∞), and minimum inhibition (S0). The reported IC50 values for compounds in this invention are the geometric means of at least 2 independent replicates.
(In general: ADP-Glo first removes unused ATP, then detects ADP through luciferase.)

T1 sequence (Q14191 2-1235): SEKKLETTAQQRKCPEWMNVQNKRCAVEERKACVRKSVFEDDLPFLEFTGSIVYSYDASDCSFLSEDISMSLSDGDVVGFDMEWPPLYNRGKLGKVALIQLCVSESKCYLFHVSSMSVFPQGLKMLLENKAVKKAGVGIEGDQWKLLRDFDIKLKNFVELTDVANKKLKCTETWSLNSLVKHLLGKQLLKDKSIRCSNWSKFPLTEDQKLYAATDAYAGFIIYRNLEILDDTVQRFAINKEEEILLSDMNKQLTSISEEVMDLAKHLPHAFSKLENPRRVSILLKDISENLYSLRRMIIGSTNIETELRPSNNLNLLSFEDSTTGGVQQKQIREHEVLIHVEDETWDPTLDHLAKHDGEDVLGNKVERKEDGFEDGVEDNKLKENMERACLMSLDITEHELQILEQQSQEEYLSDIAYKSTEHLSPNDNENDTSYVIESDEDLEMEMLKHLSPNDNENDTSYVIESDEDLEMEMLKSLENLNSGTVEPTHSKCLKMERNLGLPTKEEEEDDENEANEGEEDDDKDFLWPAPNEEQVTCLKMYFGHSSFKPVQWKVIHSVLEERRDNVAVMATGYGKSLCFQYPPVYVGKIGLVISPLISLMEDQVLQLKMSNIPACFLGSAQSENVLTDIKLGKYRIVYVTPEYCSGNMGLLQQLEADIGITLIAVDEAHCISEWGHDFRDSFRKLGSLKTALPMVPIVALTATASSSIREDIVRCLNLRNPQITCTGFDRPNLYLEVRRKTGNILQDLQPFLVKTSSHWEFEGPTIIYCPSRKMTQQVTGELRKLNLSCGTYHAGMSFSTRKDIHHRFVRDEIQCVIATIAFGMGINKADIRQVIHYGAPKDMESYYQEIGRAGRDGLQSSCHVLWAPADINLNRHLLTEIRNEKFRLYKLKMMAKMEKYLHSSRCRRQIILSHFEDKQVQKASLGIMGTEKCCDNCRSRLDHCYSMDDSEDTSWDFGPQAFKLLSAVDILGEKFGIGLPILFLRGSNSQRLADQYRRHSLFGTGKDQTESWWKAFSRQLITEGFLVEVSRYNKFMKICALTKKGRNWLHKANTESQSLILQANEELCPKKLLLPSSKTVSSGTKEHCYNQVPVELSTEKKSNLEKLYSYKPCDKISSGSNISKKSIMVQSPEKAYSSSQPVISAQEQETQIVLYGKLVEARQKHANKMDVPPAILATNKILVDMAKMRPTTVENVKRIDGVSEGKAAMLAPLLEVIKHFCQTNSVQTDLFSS

The term IC50 denotes the concentration at which inhibition is half-maximal. Low values mean greater potency in that assay, high ones weaker potency in that assay. In the case of `C=CC(=O)Nc1ccccc1-c1c(CC)nc2n(CC(=O)Nc3ccc(C(F)(F)F)cc3)c(C)cn2c1=O` [Example 1, N-(2-(7-Ethyl-2-methyl-5-oxo-1-(2-oxo-2-((4-(trifluoromethyl)phenyl)amino)ethyl)-1,5-dihydroimidazo[1,2-a]pyrimidin-6-yl)phenyl)acrylamide], the IC50 on WRN [1] and on WRN [2] was less than 100 nM throughout.
For `C=CC(=O)Nc1ccccc1-c1c(CC)nc2n(CC(=O)Nc3ccc(C(F)(F)F)cc3Cl)c(C)cn2c1=O` [Example 2, N-(2-(1-(2-((2-Chloro-4-(trifluoromethyl)phenyl)amino)-2-oxoethyl)-7-ethyl-2-methyl-5-oxo-1,5-dihydroimidazo[1,2-a]pyrimidin-6-yl)phenyl)acrylamide], the IC50 against WRN [1] and against WRN [2] was less than 100 nM in each case.
In the case of `C=CC(=O)Nc1cc(S(C)(=O)=O)ccc1-c1c(CC)nc2n(CC(=O)Nc3ccc(C(F)(F)F)cc3)c(C)cn2c1=O` [Example 3, N-(2-(7-Ethyl-2-methyl-5-oxo-1-(2-oxo-2-((4-(trifluoromethyl)phenyl)amino)ethyl)-1,5-dihydroimidazo[1,2-a]pyrimidin-6-yl)-5-(methylsulfonyl)phenyl)acrylamide], the IC50 against WRN [1] and at WRN [2] was less than 100 nM in each case.
As for `C=CC(=O)Nc1ncccc1-c1c(CC)nc2n(CC(=O)Nc3ccc(C(F)(F)F)cc3)c(C)cn2c1=O` [Example 4, N-(3-(7-Ethyl-2-methyl-5-oxo-1-(2-oxo-2-((4-(trifluoromethyl)phenyl)amino)ethyl)-1,5-dihydroimidazo[1,2-a]pyrimidin-6-yl)pyridin-2-yl)acrylamide], the IC50 against WRN [1] and against WRN [2] was less than 100 nM each time.
With `C=CC(=O)Nc1cc(-c2cnn(C)c2)ccc1-c1c(CC)nc2n(CC(=O)Nc3ccc(C(F)(F)F)cc3)c(C)cn2c1=O` [Example 5, N-(2-(7-Ethyl-2-methyl-5-oxo-1-(2-oxo-2-((4-(trifluoromethyl)phenyl)amino)ethyl)-1,5-dihydroimidazo[1,2-a]pyrimidin-6-yl)-5-(1-methyl-1H-pyrazol-4-yl)phenyl)acrylamide], the IC50 against WRN [1] and against WRN [2] was less than 100 nM each time.
Turning to `C=CS(=O)(=O)Nc1ccccc1-c1c(CC)nc2n(CC(=O)Nc3ccc(C(F)(F)F)cc3)c(C)cn2c1=O` [Example 6, 2-(7-Ethyl-2-methyl-5-oxo-6-(2-(vinylsulfonamido)phenyl)imidazo[1,2-a]pyrimidin-1(5H)-yl)-N-(4-(trifluoromethyl)phenyl)acetamide], the IC50 at WRN [1] and on WRN [2] was less than 100 nM in each case.
On to `CCc1nc2n(CC(=O)Nc3ccc(C(F)(F)F)cc3)c(C)cn2c(=O)c1-c1ccccc1NC(=O)CCl` [Example 7, 2-Chloro-N-(2-(7-ethyl-2-methyl-5-oxo-1-(2-oxo-2-((4-(trifluoromethyl)phenyl)amino)ethyl)-1,5-dihydroimidazo[1,2-a]pyrimidin-6-yl)phenyl)acetamide], for which the IC50 at WRN [1] and on WRN [2] was less than 100 nM throughout.
`C=CC(=O)Nc1cc(C(=O)NC2CC2)ccc1-c1c(CC)nc2n(CC(=O)Nc3ccc(C(F)(F)F)cc3)c(C)cn2c1=O` [Example 8, 3-Acrylamido-N-cyclopropyl-4-(7-ethyl-2-methyl-5-oxo-1-(2-oxo-2-((4-(trifluoromethyl)phenyl)amino)ethyl)-1,5-dihydroimidazo[1,2-a]pyrimidin-6-yl)benzamide]: the IC50 against WRN [1] and at WRN [2] was less than 100 nM each time.
For `C=CC(=O)Nc1cc(C(=O)NC2CC2)ccc1-c1c(CC)nc2n(CC(=O)Nc3ccc(F)cc3Cl)c(C)cn2c1=O` [Example 9, 3-Acrylamido-4-(1-(2-((2-chloro-4-fluorophenyl)amino)-2-oxoethyl)-7-ethyl-2-methyl-5-oxo-1,5-dihydroimidazo[1,2-a]pyrimidin-6-yl)-N-cyclopropylbenzamide], the concentration for half-maximal inhibition (IC50) at WRN [1] and against WRN [2] was less than 100 nM in each case.
In the case of `C=CC(=O)Nc1cc(C(=O)NC2(C)CC2)ccc1-c1c(CC)nc2n(CC(=O)Nc3ccc(C(F)(F)F)cc3)c(C)cn2c1=O` [Example 10, 3-Acrylamido-4-(7-ethyl-2-methyl-5-oxo-1-(2-oxo-2-((4-(trifluoromethyl)phenyl)amino)ethyl)-1,5-dihydroimidazo[1,2-a]pyrimidin-6-yl)-N-(1-methylcyclopropyl)benzamide], the IC50 on WRN [1] and against WRN [2] was less than 100 nM each time.
Regarding `C=CC(=O)Nc1cc(C(=O)NCC(F)F)ccc1-c1c(CC)nc2n(CC(=O)Nc3ccc(C(F)(F)F)cc3)c(C)cn2c1=O` [Example 11, 3-Acrylamido-N-(2,2-difluoroethyl)-4-(7-ethyl-2-methyl-5-oxo-1-(2-oxo-2-((4-(trifluoromethyl)phenyl)amino)ethyl)-1,5-dihydroimidazo[1,2-a]pyrimidin-6-yl)benzamide], the IC50 at WRN [1] and at WRN [2] was less than 100 nM each time.
Turning to `C#CCNC(=O)c1ccc(-c2c(CC)nc3n(CC(=O)Nc4ccc(C(F)(F)F)cc4)c(C)cn3c2=O)c(NC(=O)C=C)c1` [Example 12, 3-Acrylamido-4-(7-ethyl-2-methyl-5-oxo-1-(2-oxo-2-((4-(trifluoromethyl)phenyl)amino)ethyl)-1,5-dihydroimidazo[1,2-a]pyrimidin-6-yl)-N-(prop-2-yn-1-yl)benzamide], the IC50 on WRN [1] and against WRN [2] was less than 100 nM each time.
Regarding `C=CC(=O)Nc1cc(C(=O)NC2CCOCC2)ccc1-c1c(CC)nc2n(CC(=O)Nc3ccc(C(F)(F)F)cc3)c(C)cn2c1=O` [Example 13, 3-Acrylamido-4-(7-ethyl-2-methyl-5-oxo-1-(2-oxo-2-((4-(trifluoromethyl)phenyl)amino)ethyl)-1,5-dihydroimidazo[1,2-a]pyrimidin-6-yl)-N-(tetrahydro-2H-pyran-4-yl)benzamide], the IC50 at WRN [1] and against WRN [2] was less than 100 nM throughout.
Take `C=CC(=O)Nc1ccccc1-c1c(CC)nc2n(CC(=O)Nc3ccc(C(F)(F)F)cc3)c(C)c(C3CC3)n2c1=O` [Example 14, N-(2-(3-Cyclopropyl-7-ethyl-2-methyl-5-oxo-1-(2-oxo-2-((4-(trifluoromethyl)phenyl)amino)ethyl)-1,5-dihydroimidazo[1,2-a]pyrimidin-6-yl)phenyl)acrylamide]: the IC50 at WRN [1] and against WRN [2] was less than 100 nM in each case.
With `C=CC(=O)Nc1ccccc1-c1c(CC)nc2n(CC(=O)Nc3ccc(C(F)(F)F)cc3)c(C)c(-c3ccccc3)n2c1=O` [Example 15, N-(2-(7-Ethyl-2-methyl-5-oxo-1-(2-oxo-2-((4-(trifluoromethyl)phenyl)amino)ethyl)-3-phenyl-1,5-dihydroimidazo[1,2-a]pyrimidin-6-yl)phenyl)acrylamide], the IC50 against WRN [1] and against WRN [2] was less than 100 nM each time.
